Experiments:
3T3-L1 cells = test: qRT-PCR of adipocyte-marker genes, 3T3-L1; type: cell-based, murine; settings: qPCR, vs DMSO; n ≥ 3
Experimental: (§1) The 3T3-L1 or SGBS cells were seeded into 6-well plates and differentiated as previously described. Tesa or peptides were added to the differentiation medium at a concentration of 100 μM on day 2, followed by 12 h or 24 h incubation. On day 4, the cells were washed two times with PBS, harvested by trypsinization, and stored at −70 °C until RNA isolation was performed. […] N ≥ 3 independent experiments with two replicates were performed. For the cell culture experiments, the data were analyzed according to the 2^−ΔΔCt method using 36B4 or GAPDH as housekeeping genes and DMSO treatment as a control. Liver mRNA expression was calculated relative to 18sRNA, which was used as an internal control due to its resistance to glucose-dependent regulation. The mRNA levels were quantified using the standard curve method of QuantStudio 6 Flex software (Applied Biosystems, Foster City, CA, USA), determining the crossing points of the individual samples using an algorithm that identifies the first turning point of the fluorescence curve. Amplification of the specific transcripts was confirmed by the melting curve profiles (cooling the sample to 68 °C and heating slowly to 95 °C while measuring the fluorescence) at the end of each PCR [53].
(§2) (A, B) Cells were differentiated and stimulated according to the protocol depicted for 3T3-L1 (A) and for SGBS (B). […] Bars represent mean ± SEM from n = 3 independent experiments performed in quadruplicates. Measurements were normalized using DMSO (vehicle)-treated cells (set to 100%). Statistical significances refer to vehicle-treated cells. (E,F) Expression of adipocyte-enriched genes in 3T3-L1 (E) or SGBS (F) adipocytes analyzed by qPCR. Values represent mean ± SEM from n ≥ 3 independent experiments performed in duplicates. […] Statistical significances refer to DMSO-treated cells and were determined by one-way analysis of variance (ANOVA) followed by Dunnett's multiple comparison test, *≤0.05, **p ≤ 0.01, ***p ≤ 0.001.

PPARγ = test: PPAR reporter gene assay (luciferase); type: cell-based
Experimental: HEK293 cells stably expressing NPY1R C-terminally fused to eYFP were seeded into white 96-well plates, grown to 70–80% confluence, and transfected using Lipofectamine 2000 transfection reagent according to the manufacturer's protocol. For luciferase reporter gene assays, 250 ng reporter plasmid, positive control plasmid or negative control plasmid (Cignal PPAR Reporter (luc) Kit), 250 ng PPARγ expression vector, and 250 ng RXRα expression vector were applied in addition to 0.75 μl of Lipofectamine 2000 transfection reagent per well. For selectivity assays, HEK293 cells without stable NPY1R-eYFP transfection and HEK293 NPY1R-eYFP cells without PPARγ transfection were used. After 24 h of transfection, the cells were treated with tesa or peptides for an additional 24 h. […] Luciferase assays were performed using the Dual-Luciferase System Kit according to the manufacturer's instructions. The relative firefly luciferase activity was normalized by the corresponding Renilla luciferase activity, the luciferase activity of the cells transfected with the negative control plasmid, and the DMSO vehicle control. The assays were performed in at least three independent experiments.
Furthermore, plasmids coding for PPARγ and RXRα were transfected. Because PPARγ binds as a heterodimer with RXRα to PPRE-responsive elements, RXRα is needed for PPARγ activity.
Figure 5 Transcriptional activity of the PPAR reporter gene. […] The depicted values represent mean ± SEM from n ≥ 3 independent experiments. All measurements were normalized to the transcriptional activity of DMSO-treated cells expressing all factors (set to […]). Statistical significance was determined by one-way analysis of variance (ANOVA) followed by Dunnett's multiple comparison test, *≤0.05, **p ≤ 0.01, ***p ≤ 0.001.

PPARγ mRNA in liver = test: PPARγ mRNA expression in liver; type: in vivo; settings: db/db mice, 2.5 μM/kg/day, 8 days; qRT-PCR relative to control animals
Experimental: as §1, with “[53]. […]” for “[53].”

[1] = tested on: LDL receptor-deficient mice; settings: ref [94]; cited from earlier work
ob/ob mice = settings: free systemically administered tesa; ref [43]; cited from earlier work
SGBS cells = test: qRT-PCR of adipocyte-marker genes, SGBS; type: cell-based, human; settings: qPCR, vs DMSO; n ≥ 3
Experimental: as §1, §2

HbA1C = type: in vivo; settings: db/db mice, 2.5 μM/kg/day, 8 days
Experimental: All of the experiments were performed according to the animal ethical laws of the state Saxony, Germany, and were approved by the local animal ethics review board (Landesdirektion Sachsen, Leipzig, Germany). Female db/db mice 12–15 weeks of age were purchased from Taconic (Denmark) and housed in groups of 5 in temperature- and humidity-controlled facilities in a 12 h:12 h light–dark cycle and had free access to tap water and food (regular chow, Sniff, Soest, Germany). Three out of seven groups served as controls (N = 15, see Table 1). The 5 db/db mice were untreated and 10 db/db mice were vehicle treated either orally or intraperitoneally (i.p.). […]
All of the mice were monitored for 9 days during the treatment period. Body weight, food intake, and water uptake were recorded daily and body composition (lean body mass and whole body fat mass) was recorded at the beginning, middle, and end of the study in the conscious mice using an EchoMRI system (Echo Medical Systems, Houston, TX, USA). At the beginning and end of the treatment period, the HbA1c levels were determined from 5 μl of whole venous blood samples using an automated chemical analyzer at the Institute of Laboratory Medicine and Clinical Chemistry and beta-ketone using an automated glucose monitor (FreeStyle Precision H, Abbott GmbH, Ludwigshafen, Germany). […]

Question: What does the source list for `CCO[C@@H](Cc1ccc(OCCc2ccc(OS(C)(=O)=O)cc2)cc1)C(=O)O` [tesa, tesaglitazar]?
Answer: Cidec expression, 3T3-L1 (3T3-L1 cells): enhanced; Fabp4 expression, 3T3-L1 (3T3-L1 cells): enhanced; adiponectin expression, 3T3-L1 (3T3-L1 cells): upregulated; transcriptional activity in absence of PPARγ (PPARγ; 100 μM, HEK293 NPY1R without PPARγ transfection): complete loss of transcriptional activity; transcriptional activity in absence of NPY1R (PPARγ; 100 μM, HEK293 without NPY1R, with PPARγ): not influenced by NPY1R expression; concentration-response curve / potency in reporter assay (PPARγ; HEK293 NPY1R, PPARγ, RXRα, 24 h): demonstrated a saturation curve; relative transcriptional activity (luciferase) (PPARγ; HEK293 stably expressing NPY1R, transfected with PPAR reporter, PPARγ, RXRα, 24 h treatment, n ≥ 3): Concentration-dependent luciferase activity was detected; expression of PPARγ in the liver (PPARγ mRNA in liver): significantly enhanced the expression of PPARγ in the liver; atherosclerosis in LDL receptor-deficient mice [1]: reduces atherosclerosis in LDL receptor-deficient mice; anti-diabetic effect in ob/ob mice (ob/ob mice): reduce hypertriglyceridemia, hyperinsulinemia, and hyperglycemia in ob/ob mice; Cidec expression, SGBS (SGBS cells): enhanced the expression of adiponectin, Fabp4, and Cidec; Fabp4 expression, SGBS (SGBS cells): only Fabp4 induction by tesa reached significant differences; adiponectin expression, SGBS (SGBS cells): enhanced the expression of adiponectin, Fabp4, and Cidec; HbA1C change (HbA1C; vehicle/untreated increased by approximately 2%, n = 5): graduated reduced increase; diabetes progression (HbA1C; 12-16 weeks old): deceleration of disease progression
